Assay results reported in patent US20230015949A1, “NEISSERIA TREATMENT USING CANNABINOIDS” (priority 2019, published 2023).
Values after ≈ are worked out from the molar mass of the structure shown. Where two headings read alike, the source gives them in different places.

How the values were obtained:
Neisseria gonorrhoeae [1] = settings: N. gonorrhoeae ATCC 49226; in parentheses in broth microdilution columns; ranges are for agar dilution testing; cited from earlier work
Neisseria meningitidis = experiment: Broth microdilution MIC testing (Example 1); type: cell-based; settings: Neisseria meningitidis, ATCC13090; N. meningitidis MMX 0707 / ATCC 13090; broth microdilution; read-out: MIC
Experimental: (§1) In this study, to evaluate the spectrum of activity, cannabidiol (CBD) was profiled against Neisseria. Testing was conducted following guidelines recommended by the Clinical and Laboratory Standards Institute (CLSI, 1-4), using vancomycin, meropenem, levofloxacin, and gentamicin as comparators for testing aerobic bacteria.
(§2) Test agents were supplied by Micromyx. Stock solutions of all compounds were prepared on the first day of testing at 101× the highest test concentration using solvents recommended by CLSI. CBD was prepared fresh on each of testing.
(§3) The test organisms evaluated in this study consisted of clinical isolates from the Micromyx Repository, reference isolates from the American Type Culture Collection (ATCC; Manassas, Va.), isolates from the antibiotic resistance bank from the Centers for Disease Control and Prevention (CDC; Atlanta, Ga.), and isolates from the Network on Antimicrobial Resistance in Staphylococcus aureus (NARSA; BEI Resources, Manassas, Va.). Upon initial receipt at Micromyx, the organisms were sub-cultured onto an appropriate agar medium. Following incubation, colonies were harvested from these plates and cell suspensions prepared and frozen at −80° C. with a cryoprotectant.
(§4) Prior to testing, Neisseria was streaked onto Chocolate agar (BD; Lot No. 9228071) and incubated at 35° C. in 5% CO2 for 24 hr.
(§5) For Neisseria, a modified medium described by the ATCC as capable of supporting growth was used. This medium contains 15 g Oxoid Special Peptone, 1 g corn starch (Ward's Science; Rochester, N.Y.; Lot 39-3271), 5 g NaCl (VWR; 57897), 4 g K2HPO4 (Sigma; Lot SLBT7061), 1 g KH2PO4 (SLBC1921V), and 1% IsoVitaleX (BD; Lot 8323954) enrichment per 500 mL.
(§6) MIC values were determined using a broth microdilution procedure described by CLSI (1-4). Automated liquid handlers (Multidrop 384, Labsystems, Helsinki, Finland; Biomek 2000 and Biomek FX, Beckman Coulter, Fullerton, Calif.) were used to conduct serial dilutions and liquid transfers.
(§7) To prepare the drug mother plates, which would provide the serial drug dilutions for the replicate daughter plates, the wells of columns 2 through 12 of standard 96-well microdilution plates (Costar 3795) were filled with 150 μl of the designated diluent for each row of drug. The test article and comparator compounds (300 μl at 101× the highest concentration to be tested) were dispensed into the appropriate wells in column 1. The Biomek 2000 was then used to make 2-fold serial dilutions in the mother plates from column 1 through column 11. The wells of column 12 contained no drug and served as the organism growth control wells for the assay.
(§8) The daughter plates were loaded with 190 μL per well of the appropriate test medium for the tested organism using the Multidrop 384. The daughter plates were completed on the Biomek FX instrument which transferred 2 μL of drug solution from each well of a mother plate to the corresponding well of each daughter plate in a single step.
A standardized inoculum of each test organism was prepared per CLSI methods (1-4). The inoculum for each organism was dispensed into sterile reservoirs divided by length (Beckman Coulter), and the Biomek 2000 was used to inoculate the plates. […]
The plates for testing of aerobic organisms were stacked 3 to 4 high, covered with a sterile lid, and incubated at 35° C. and 5% CO2 for the time periods specified in CLSI (1-4). […] The MIC was read and recorded as the lowest concentration of drug that inhibited visible growth of the organism.

Neisseria gonorrhoeae [2] = experiment: Broth microdilution MIC testing (Example 1); type: cell-based; settings: Neisseria gonorrhoeae, broth microdilution, read-out: MIC
Experimental: as §1, §2, §3, §4, §5, §6, §7, §8
A standardized inoculum of each test organism was prepared per CLSI methods (1-4). The inoculum for each organism was dispensed into sterile reservoirs divided by length (Beckman Coulter), and the Biomek 2000 was used to inoculate the plates. Daughter plates were placed on the Biomek 2000 work surface in reverse orientation so that inoculation took place from low to high drug concentration. Plates were inoculated with 10 μL of the inoculum resulting in a final cell density of approximately 5×10^5 CFU/mL per well.
The plates for testing of aerobic organisms were stacked 3 to 4 high, covered with a sterile lid, and incubated at 35° C. and 5% CO2 for the time periods specified in CLSI (1-4). […] Following incubation, the microplates were removed from the incubator and viewed from the bottom using a plate viewer. […] The MIC was read and recorded as the lowest concentration of drug that inhibited visible growth of the organism.

[3] = Un-inoculated solubility control plate, drug precipitation; type: physicochemical; settings: Neisseria test medium and CAMHB

| SMILES | CLSI QC range of MIC (Neisseria gonorrhoeae [1]) | MIC (Neisseria meningitidis) | MIC (Neisseria gonorrhoeae [2]; ATCC49226, N. gonorrhoeae MMX 0683 / ATCC 49226, plate read at 40 hr) | MIC (Neisseria gonorrhoeae [2]; N. gonorrhoeae MMX 6746) | MIC (Neisseria gonorrhoeae [2]; N. gonorrhoeae MMX 6757, plate read at 40 hr) | Concentration at which precipitation was seen [3] |
| --- | --- | --- | --- | --- | --- | --- |
| CC[C@H]1OC(=O)[C@H](C)[C@@H](O[C@H]2C[C@@](C)(OC)[C@@H](O)[C@H](C)O2)[C@H](C)[C@@H](O[C@@H]2O[C@H](C)C[C@H](N(C)C)[C@H]2O)[C@](C)(O)C[C@@H](C)CN(C)[C@H](C)[C@@H](O)[C@]1(C)O [AZI, azithromycin] | 0.25 to 1 µg/mL |  |  |  |  |  |
| C=C(C)C1CCC(C)=CC1c1c(O)cc(CCCCC)cc1O (stereo not drawn) [CBD, 2-[3-methyl-6-(1-methylethenyl)-2-cyclohexen-1-yl]-5-pentyl-1,3-benzenediol] |  | 0.25 µg/mL (≈ 0.795 µM) | 1 µg/mL (≈ 3.18 µM) | 1 µg/mL (≈ 3.18 µM) | 2 µg/mL (≈ 6.36 µM) | ≥ 8000 ng/mL |
